Assay results as given in ChEMBL document CHEMBL5226285, “The long and winding road of designing phosphodiesterase inhibitors for the treatment of heart failure” (Eur J Med Chem, 2021).
One block for each compound: values may come before it.

Columns and labels:
[1] = target: T1, 3',5'-cyclic-AMP phosphodiesterase 4B (Homo sapiens, UniProt Q07343)
Description: Inhibition of human recombinant PDE4B1 using FAM-cAMP as substrate incubated for 20 mins

[2] = target: T2, cAMP and cAMP-inhibited cGMP 3',5'-cyclic phosphodiesterase 10A (Homo sapiens, UniProt Q9Y233)
Description: Inhibition of PDE10A (unknown origin)

[3] = target: Dual specificity calcium/calmodulin-dependent 3',5'-cyclic nucleotide phosphodiesterase 1B (Homo sapiens, UniProt Q01064)
Sequence of Dual specificity calcium/calmodulin-dependent 3',5'-cyclic nucleotide phosphodiesterase 1B (Q01064 whole entry): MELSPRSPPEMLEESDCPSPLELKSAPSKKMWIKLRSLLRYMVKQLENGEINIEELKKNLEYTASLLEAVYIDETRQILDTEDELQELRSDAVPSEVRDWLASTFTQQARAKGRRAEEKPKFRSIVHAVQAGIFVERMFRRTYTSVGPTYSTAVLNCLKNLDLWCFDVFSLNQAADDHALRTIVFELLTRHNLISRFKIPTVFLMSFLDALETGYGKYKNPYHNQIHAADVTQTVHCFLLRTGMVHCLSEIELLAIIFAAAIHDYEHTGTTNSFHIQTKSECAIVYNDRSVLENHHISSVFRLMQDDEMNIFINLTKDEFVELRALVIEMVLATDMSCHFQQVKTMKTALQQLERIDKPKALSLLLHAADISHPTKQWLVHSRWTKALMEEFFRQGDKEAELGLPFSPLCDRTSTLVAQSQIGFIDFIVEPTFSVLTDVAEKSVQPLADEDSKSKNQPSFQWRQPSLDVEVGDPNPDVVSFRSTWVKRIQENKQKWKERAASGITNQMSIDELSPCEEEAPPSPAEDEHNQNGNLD
Description: Inhibition of PDE1B (unknown origin)

[4] = target: T3, cGMP-specific 3',5'-cyclic phosphodiesterase (Homo sapiens, UniProt O76074)
Description: Inhibition of PDE5A1 (unknown origin) using FAM-cGMP as substrate incubated for 60 mins by IMAP-fluorescence polarization assay

[5] = target: T4, Acetylcholinesterase (Rattus norvegicus, UniProt P37136)
T4 sequence (P37136 whole entry): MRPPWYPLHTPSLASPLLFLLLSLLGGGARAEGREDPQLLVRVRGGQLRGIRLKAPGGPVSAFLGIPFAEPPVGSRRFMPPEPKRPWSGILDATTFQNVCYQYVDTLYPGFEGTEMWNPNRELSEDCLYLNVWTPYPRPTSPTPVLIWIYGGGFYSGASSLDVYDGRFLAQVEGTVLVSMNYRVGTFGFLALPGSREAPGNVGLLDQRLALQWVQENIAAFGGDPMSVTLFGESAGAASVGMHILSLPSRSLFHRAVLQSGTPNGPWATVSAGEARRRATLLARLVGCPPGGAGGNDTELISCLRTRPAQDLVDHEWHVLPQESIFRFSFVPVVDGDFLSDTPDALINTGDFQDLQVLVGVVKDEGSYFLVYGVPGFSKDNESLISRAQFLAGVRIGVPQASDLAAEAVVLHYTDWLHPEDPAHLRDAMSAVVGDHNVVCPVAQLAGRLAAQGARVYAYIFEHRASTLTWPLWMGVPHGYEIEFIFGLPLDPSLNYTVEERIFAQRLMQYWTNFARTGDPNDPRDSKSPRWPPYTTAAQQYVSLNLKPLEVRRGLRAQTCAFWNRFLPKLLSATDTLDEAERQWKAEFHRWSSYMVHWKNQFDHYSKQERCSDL
Description: Inhibition of rat cortex AChE using acetylthiocholine iodide as substrate incubated for 20 mins by DTNB-reagent based Ellman's method

[6] = target: High affinity cGMP-specific 3',5'-cyclic phosphodiesterase 9A (Homo sapiens, UniProt O76083)
Sequence of High affinity cGMP-specific 3',5'-cyclic phosphodiesterase 9A (O76083 whole entry): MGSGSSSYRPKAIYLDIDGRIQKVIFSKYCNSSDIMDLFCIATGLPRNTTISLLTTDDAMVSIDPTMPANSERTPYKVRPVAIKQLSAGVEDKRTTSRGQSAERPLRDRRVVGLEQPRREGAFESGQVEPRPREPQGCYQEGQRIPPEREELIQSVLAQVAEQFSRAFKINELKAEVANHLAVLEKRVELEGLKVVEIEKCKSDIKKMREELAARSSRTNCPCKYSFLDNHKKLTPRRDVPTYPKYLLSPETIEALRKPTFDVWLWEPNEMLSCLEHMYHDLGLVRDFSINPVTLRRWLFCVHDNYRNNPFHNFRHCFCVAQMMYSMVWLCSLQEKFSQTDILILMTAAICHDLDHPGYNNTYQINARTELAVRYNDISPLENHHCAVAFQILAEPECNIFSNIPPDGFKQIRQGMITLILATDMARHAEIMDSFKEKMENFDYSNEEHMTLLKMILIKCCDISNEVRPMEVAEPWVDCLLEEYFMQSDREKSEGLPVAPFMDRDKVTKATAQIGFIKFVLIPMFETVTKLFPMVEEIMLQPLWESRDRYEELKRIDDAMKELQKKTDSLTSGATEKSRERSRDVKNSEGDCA
Description: Inhibition of PDE9A (unknown origin)

[7] = target: T2, cAMP and cAMP-inhibited cGMP 3',5'-cyclic phosphodiesterase 10A; remark: listed apart in the source
[8] = target: cGMP-dependent 3',5'-cyclic phosphodiesterase (Homo sapiens, UniProt O00408)
Sequence of cGMP-dependent 3',5'-cyclic phosphodiesterase (O00408 whole entry): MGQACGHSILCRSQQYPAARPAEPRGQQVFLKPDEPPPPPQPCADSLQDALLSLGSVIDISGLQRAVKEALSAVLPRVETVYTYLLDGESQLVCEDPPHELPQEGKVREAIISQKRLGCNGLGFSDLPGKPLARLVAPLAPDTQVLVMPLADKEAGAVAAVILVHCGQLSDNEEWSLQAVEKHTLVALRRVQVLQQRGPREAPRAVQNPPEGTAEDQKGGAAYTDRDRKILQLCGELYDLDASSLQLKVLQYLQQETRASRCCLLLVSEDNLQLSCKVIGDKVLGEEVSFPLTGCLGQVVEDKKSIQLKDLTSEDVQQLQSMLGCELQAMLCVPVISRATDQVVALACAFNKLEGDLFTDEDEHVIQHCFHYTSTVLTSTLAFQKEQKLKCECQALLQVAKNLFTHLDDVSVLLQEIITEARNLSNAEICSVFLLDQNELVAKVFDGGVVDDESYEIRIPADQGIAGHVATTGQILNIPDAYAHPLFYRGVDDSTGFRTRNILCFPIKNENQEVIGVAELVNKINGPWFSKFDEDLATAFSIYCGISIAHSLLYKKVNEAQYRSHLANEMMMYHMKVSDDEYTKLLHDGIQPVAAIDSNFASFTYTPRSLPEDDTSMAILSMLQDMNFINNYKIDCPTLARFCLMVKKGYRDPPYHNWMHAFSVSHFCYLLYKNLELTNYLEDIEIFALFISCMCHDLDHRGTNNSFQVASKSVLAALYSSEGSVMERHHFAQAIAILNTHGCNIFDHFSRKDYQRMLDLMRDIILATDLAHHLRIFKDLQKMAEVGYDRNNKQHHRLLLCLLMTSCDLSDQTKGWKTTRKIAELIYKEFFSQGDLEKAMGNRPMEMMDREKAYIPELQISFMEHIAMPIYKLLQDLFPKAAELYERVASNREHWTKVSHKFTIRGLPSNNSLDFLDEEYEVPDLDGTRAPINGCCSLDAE

[9] = target: Phosphodiesterase 4 (Homo sapiens, UniProt P27815+Q08499+Q07343+Q08493); assay type: protein assay
Description: Inhibition of PDE4 (unknown origin)

[10] = target: T3, cGMP-specific 3',5'-cyclic phosphodiesterase; remark: listed apart in the source
Description: Inhibition of human recombinant PDE5A using (Fl)-cAMP and TAMRA-cGMP as substrate incubated for 60 mins by IMAP-fluorescence polarization assay

[11] = target: T1, 3',5'-cyclic-AMP phosphodiesterase 4B; remark: listed apart in the source
Description: Displacement of [3H]-cAMP from full-length recombinant human PDE4B1 by fluorescence polarisation assay

[12] = target: 3',5'-cyclic-AMP phosphodiesterase 4D (Homo sapiens, UniProt Q08499)
Sequence of 3',5'-cyclic-AMP phosphodiesterase 4D (Q08499 whole entry): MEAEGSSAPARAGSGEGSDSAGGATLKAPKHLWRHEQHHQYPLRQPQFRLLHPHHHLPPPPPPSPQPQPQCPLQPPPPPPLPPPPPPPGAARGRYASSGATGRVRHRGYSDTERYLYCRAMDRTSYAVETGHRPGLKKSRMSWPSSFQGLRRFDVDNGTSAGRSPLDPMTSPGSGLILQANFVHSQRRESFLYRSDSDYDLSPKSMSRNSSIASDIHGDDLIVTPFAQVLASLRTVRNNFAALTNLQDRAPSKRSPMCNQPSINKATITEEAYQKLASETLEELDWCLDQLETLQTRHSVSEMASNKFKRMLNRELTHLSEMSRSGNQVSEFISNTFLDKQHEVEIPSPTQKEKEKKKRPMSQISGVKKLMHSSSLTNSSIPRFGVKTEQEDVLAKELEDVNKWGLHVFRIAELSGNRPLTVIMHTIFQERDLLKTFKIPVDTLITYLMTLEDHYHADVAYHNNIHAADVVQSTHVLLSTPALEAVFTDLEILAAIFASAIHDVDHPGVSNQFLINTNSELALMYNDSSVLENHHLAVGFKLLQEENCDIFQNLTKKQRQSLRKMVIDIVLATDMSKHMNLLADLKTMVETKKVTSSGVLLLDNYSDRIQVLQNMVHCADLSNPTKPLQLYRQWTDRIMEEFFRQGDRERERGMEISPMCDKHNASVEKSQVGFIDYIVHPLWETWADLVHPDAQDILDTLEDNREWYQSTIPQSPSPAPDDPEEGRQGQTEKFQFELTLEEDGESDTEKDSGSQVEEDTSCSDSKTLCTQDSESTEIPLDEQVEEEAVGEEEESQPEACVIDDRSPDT
Description: Displacement of [3H]-cAMP from full-length recombinant human PDE4D7 by fluorescence polarisation assay

[13] = target: High affinity cAMP-specific and IBMX-insensitive 3',5'-cyclic phosphodiesterase 8A (Homo sapiens, UniProt O60658); assay: biochemical; assay type: cell-based, Sf9
Description: Inhibition of human recombinant PDE8A expressed in baculovirus infected Sf9 insect cells

T1 sequence (Q07343 whole entry): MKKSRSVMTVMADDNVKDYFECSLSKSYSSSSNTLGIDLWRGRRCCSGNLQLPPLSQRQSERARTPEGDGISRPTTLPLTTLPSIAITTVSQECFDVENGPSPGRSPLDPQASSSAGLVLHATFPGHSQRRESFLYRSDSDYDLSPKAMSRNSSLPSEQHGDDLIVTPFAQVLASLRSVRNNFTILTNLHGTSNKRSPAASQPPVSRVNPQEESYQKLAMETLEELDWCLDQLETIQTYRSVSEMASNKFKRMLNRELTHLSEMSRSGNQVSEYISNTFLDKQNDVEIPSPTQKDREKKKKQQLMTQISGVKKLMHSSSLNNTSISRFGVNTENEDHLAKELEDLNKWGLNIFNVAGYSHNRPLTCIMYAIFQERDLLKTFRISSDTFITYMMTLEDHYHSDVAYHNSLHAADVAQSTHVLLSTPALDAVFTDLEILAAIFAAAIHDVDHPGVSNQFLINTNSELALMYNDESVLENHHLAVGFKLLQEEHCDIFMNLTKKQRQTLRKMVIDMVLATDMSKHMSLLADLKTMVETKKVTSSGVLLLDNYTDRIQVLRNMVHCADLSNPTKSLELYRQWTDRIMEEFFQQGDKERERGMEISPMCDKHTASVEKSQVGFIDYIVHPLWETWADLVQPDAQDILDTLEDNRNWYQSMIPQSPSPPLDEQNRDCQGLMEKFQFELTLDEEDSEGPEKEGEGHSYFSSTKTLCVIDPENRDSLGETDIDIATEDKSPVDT
T2 sequence (Q9Y233 whole entry): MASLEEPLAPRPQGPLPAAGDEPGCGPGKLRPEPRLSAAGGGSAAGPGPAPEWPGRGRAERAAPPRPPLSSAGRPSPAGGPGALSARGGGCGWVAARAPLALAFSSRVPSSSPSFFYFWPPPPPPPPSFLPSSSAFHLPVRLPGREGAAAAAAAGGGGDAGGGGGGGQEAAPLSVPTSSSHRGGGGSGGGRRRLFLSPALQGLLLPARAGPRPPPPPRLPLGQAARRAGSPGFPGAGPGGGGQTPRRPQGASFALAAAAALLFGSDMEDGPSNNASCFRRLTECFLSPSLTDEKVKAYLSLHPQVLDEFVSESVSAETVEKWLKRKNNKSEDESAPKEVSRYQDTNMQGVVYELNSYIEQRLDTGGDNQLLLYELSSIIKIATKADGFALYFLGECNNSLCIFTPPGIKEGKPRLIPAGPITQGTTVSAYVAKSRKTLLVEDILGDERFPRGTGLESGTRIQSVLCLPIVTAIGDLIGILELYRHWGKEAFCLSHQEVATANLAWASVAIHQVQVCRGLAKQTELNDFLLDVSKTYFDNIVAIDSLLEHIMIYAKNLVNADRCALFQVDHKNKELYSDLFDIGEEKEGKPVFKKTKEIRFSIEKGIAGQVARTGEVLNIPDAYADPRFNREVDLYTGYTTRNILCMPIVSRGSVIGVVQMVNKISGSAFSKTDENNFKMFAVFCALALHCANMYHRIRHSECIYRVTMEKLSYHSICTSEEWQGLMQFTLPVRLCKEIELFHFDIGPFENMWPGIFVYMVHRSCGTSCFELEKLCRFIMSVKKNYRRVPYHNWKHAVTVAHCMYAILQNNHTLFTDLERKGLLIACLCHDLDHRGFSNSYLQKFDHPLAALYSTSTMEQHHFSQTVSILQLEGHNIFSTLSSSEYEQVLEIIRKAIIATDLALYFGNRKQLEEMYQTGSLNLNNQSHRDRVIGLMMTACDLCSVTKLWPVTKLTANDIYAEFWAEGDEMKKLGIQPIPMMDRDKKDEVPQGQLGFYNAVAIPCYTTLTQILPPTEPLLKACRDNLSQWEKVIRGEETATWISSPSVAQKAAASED

IC50 [1]: 27 nM
Structure (SMILES): COc1ccc([C@H]2CCN3C(=O)NC[C@H]23)cc1OC1CCCC1

IC50 [2]: 6 nM
Structure (SMILES): COc1cc2ncnc(N3CC[C@@H](Oc4cnc5ccccc5n4)C3)c2cc1OC

IC50 [3]: 130 nM
Structure (SMILES): COc1cc2ncnc(C(C)c3cccc(Cl)c3)c2cc1OC (centres undefined)

Structure (SMILES): O=C1[C@H]2Cc3c([nH]c4ccccc34)[C@@H](c3ccc4c(c3)OCO4)N2C(=O)CN1CCC1CCN(Cc2ccccc2)CC1
IC50 [4]: 36 nM
IC50 [5]: 153 nM

IC50 [6]: > 10000 nM
Structure (SMILES): C[C@@H](Nc1nc2c(cnn2C2CCCC2)c(=O)n1Cc1ccccc1)c1ccc(Cl)cc1

IC50 [7]: > 1000 nM
Structure (SMILES): CCCCOc1ccc(F)c(-c2nc(C)c3nnc4ccc(OCCF)nc4n23)c1

IC50 [8]: 0.51 nM
Structure (SMILES): Cc1ncn(-c2nc3c(C(=O)N[C@@H](c4ccc(OC(F)(F)F)cc4)C(C)(C)O)cnn3cc2C)n1

IC50 [3]: 219 nM
Structure (SMILES): CCCN(CCC)c1ncnc2c(OC)c(OC)c(OC)cc12

IC50 [9]: 0.7 nM
Structure (SMILES): CC(=O)OCCOc1nc(Oc2ccc3c(c2)COB3O)ccc1C#N

Structure (SMILES): O=C1[C@@H]2Cc3c([nH]c4ccccc34)[C@@H](c3ccc4c(c3)OCO4)N2C(=O)CN1CCC1CCN(Cc2ccccc2)CC1
IC50 [4]: 32 nM
IC50 [5]: 1530 nM

IC50 [10]: 3 nM
Structure (SMILES): CCN1CC(=O)N2[C@H](c3ccc(Cl)cc3)c3[nH]c4ccccc4c3C[C@@H]2C1=O

Structure (SMILES): COc1ccc([C@@H]2c3[nH]c4ccccc4c3C[C@H]3C(=O)N(CCC4CCN(Cc5ccccc5)CC4)CC(=O)N23)cc1
IC50 [4]: 15 nM
IC50 [5]: 3230 nM

IC50 [1]: 18 nM
Structure (SMILES): O=C1NC[C@@H]2[C@@H](c3ccc(OC(F)F)c(OCC4CC4)c3)CCN12

IC50 [11]: 290 nM
IC50 [12]: 310 nM
Structure (SMILES): N#CC(c1ccc(OC(F)F)c(OC2CCCC2)c1)c1ccc(Cl)nn1 (centres undefined)

IC50 [13]: 4000 nM
Structure (SMILES): OCCN(CCO)c1nc(N2CCCCC2)c2nc(N(CCO)CCO)nc(N3CCCCC3)c2n1 [DIPYRIDAMOLE]
